This test addresses Platelet-activating factor receptor (Oryctolagus cuniculus). The test is described as follows: Antagonist activity against platelet activating factor (PAF) receptor in rabbit platelet membranes using [3H]C18-PAF as radioligand.

Molecules are shown by their SMILES.

One may read the Ki as a dissociation constant, usually derived from enzyme kinetics or from competition with a known ligand. Low readings indicate higher affinity, high ones lower affinity. As to `O=C(c1c[nH]c2ccccc12)[C@@H]1CS[C@@H](c2cccnc2)N1C(=O)C(F)(F)F`, affinity was put at a Ki of 7100 nM.

In turn, `O=C(c1c[nH]c2ccccc12)[C@@H]1CS[C@H](c2cccnc2)N1C(=O)C(F)(F)F` showed a Ki of 1640 nM. This Ki is about 4.3-fold lower than that of the molecule before.

For the molecule `CC(=O)N1C(c2cccnc2)SC[C@H]1C(=O)c1c[nH]c2ccccc12` (stereo partly drawn) [1-[(R)-4-(1H-Indole-3-carbonyl)-2-pyridin-3-yl-thiazolidin-3-yl]-ethanone], the affinity, expressed as Ki, was 17800 nM. Compared with the last molecule, the Ki is about 11-fold higher.

As to `CC(C)(C)C(=O)n1cc(C(=O)[C@@H]2CSC(c3cccnc3)N2)c2ccccc21` (stereo partly drawn) [2,2-Dimethyl-1-[3-((R)-2-pyridin-3-yl-thiazolidine-4-carbonyl)-indol-1-yl]-propan-1-one], the inhibition constant Ki came to 8.8 nM.

In turn, `Cc1ccc2c(c1)c(C(=O)[C@@H]1CSC(c3cccnc3)N1)c(C)n2C(=O)N(C)C` (stereo partly drawn) [2,5-Dimethyl-3-(2-pyridin-3-yl-thiazolidine-4-carbonyl)-indole-1-carboxylic acid dimethylamide] came in with an inhibitory constant (Ki) of 13 nM.

`Cc1ccc2c(c1)c(C(=O)[C@@H]1CSC(c3cccnc3)N1)c(C)n2C(=O)OC(C)(C)C` (stereo partly drawn) [2,5-Dimethyl-3-((R)-2-pyridin-3-yl-thiazolidine-4-carbonyl)-indole-1-carboxylic acid tert-butyl ester; compound with oxalic acid] registered an inhibitory constant (Ki) of 77 nM.

Molecule `Cc1c(C(=O)[C@@H]2CSC(c3cccnc3)N2)c2ccccc2n1C(=O)OC(C)(C)C` (stereo partly drawn) [2-Methyl-3-((R)-2-pyridin-3-yl-thiazolidine-4-carbonyl)-indole-1-carboxylic acid tert-butyl ester; compound with oxalic acid] showed a Ki of 9.5 nM.

Take `NC(=O)Cn1cc(C(=O)[C@@H]2CSC(c3cccnc3)N2)c2ccccc21` (stereo partly drawn) [2-[3-((R)-2-Pyridin-3-yl-thiazolidine-4-carbonyl)-indol-1-yl]-acetamide]: the Ki worked out at 5 nM.

`O=C(c1cn(C(=O)OCc2ccccc2)c2ccccc12)[C@@H]1CSC(c2cccnc2)N1` (stereo partly drawn) [3-((R)-2-Pyridin-3-yl-thiazolidine-4-carbonyl)-indole-1-carboxylic acid benzyl ester; compound with oxalic acid] showed a Ki of 3 nM.

In turn, `CCN(CC)C(=O)n1cc(C(=O)[C@@H]2CSC(c3cccnc3)N2)c2ccccc21` (stereo partly drawn) [3-((R)-2-Pyridin-3-yl-thiazolidine-4-carbonyl)-indole-1-carboxylic acid diethylamide] yielded a Ki of 1.4 nM.

The molecule `CN(C)C(=O)n1cc(C(=O)[C@@H]2CSC(c3cccnc3)N2)c2ccccc21` (stereo partly drawn) [3-((R)-2-Pyridin-3-yl-thiazolidine-4-carbonyl)-indole-1-carboxylic acid dimethylamide] came in with a Ki of 0.8 nM.

Consider `CCOC(=O)n1cc(C(=O)[C@@H]2CSC(c3cccnc3)N2)c2ccccc21` (stereo partly drawn) [3-((R)-2-Pyridin-3-yl-thiazolidine-4-carbonyl)-indole-1-carboxylic acid ethyl ester], for which the affinity, expressed as Ki, was 4.4 nM.

`CN(C(=O)n1cc(C(=O)[C@@H]2CSC(c3cccnc3)N2)c2ccccc21)c1ccccc1` (stereo partly drawn) [3-((R)-2-Pyridin-3-yl-thiazolidine-4-carbonyl)-indole-1-carboxylic acid methyl-phenyl-amide] registered a Ki of 31 nM.

Molecule `CC(C)(C)OC(=O)n1cc(C(=O)[C@@H]2CSC(c3cccnc3)N2)c2ccccc21` (stereo partly drawn) [3-((R)-2-Pyridin-3-yl-thiazolidine-4-carbonyl)-indole-1-carboxylic acid tert-butyl ester] returned a Ki of 1 nM.

Molecule `CC(C)(C)NC(=O)n1cc(C(=O)[C@@H]2CSC(c3cccnc3)N2)c2ccccc21` (stereo partly drawn) [3-((R)-2-Pyridin-3-yl-thiazolidine-4-carbonyl)-indole-1-carboxylic acid tert-butylamide] returned a Ki of 8.8 nM.

With `COC(=O)CCn1cc(C(=O)[C@@H]2CSC(c3cccnc3)N2)c2ccccc21` (stereo partly drawn) [3-[3-((R)-2-Pyridin-3-yl-thiazolidine-4-carbonyl)-indol-1-yl]-propionic acid methyl ester], the Ki amounted to 4.6 nM.

In the case of `O=C(O)CCn1cc(C(=O)[C@@H]2CSC(c3cccnc3)N2)c2ccccc21` (stereo partly drawn) [3-[3-((R)-2-Pyridin-3-yl-thiazolidine-4-carbonyl)-indol-1-yl]-propionic acid], the inhibition constant Ki was 25 nM.

As for `COc1cc2c(C(=O)[C@@H]3CSC(c4cccnc4)N3)cn(C(=O)N(C)C)c2cc1OC` (stereo partly drawn) [5,6-Dimethoxy-3-((R)-2-pyridin-3-yl-thiazolidine-4-carbonyl)-indole-1-carboxylic acid dimethylamide], the affinity corresponds to a Ki of 10 nM.

Molecule `COCCOc1ccc2c(C(=O)[C@@H]3CSC(c4cccnc4)N3)cn(C(=O)N(C)C)c2c1` (stereo partly drawn) [6-(2-Methoxy-ethoxy)-3-((R)-2-pyridin-3-yl-thiazolidine-4-carbonyl)-indole-1-carboxylic acid dimethylamide] showed a Ki of 3 nM.

In the case of `Cc1nnc2n1-c1sc3c(c1C(c1ccccc1Cl)=NC2)CC(C(=O)N1CCOCC1)C3` (stereo not drawn) [6-(2-chlorophenyl)-1-methyl-8,9-dihydro-4H,7H-cyclopenta[4,5]thieno[3,2-f][1,2,4]triazolo[4,3-a][1,4]diazepin-9-yl-1,4-oxazinan-4-ylmethanone (WEB 2170)], the inhibitory constant (Ki) turned out to be 29 nM.

For `CN(C)C(=O)n1cc(C(=O)[C@@H]2CSC(c3cccnc3)N2)c2ccc(OCc3ccc(F)cc3)cc21` (stereo partly drawn) [6-(4-Fluoro-benzyloxy)-3-((R)-2-pyridin-3-yl-thiazolidine-4-carbonyl)-indole-1-carboxylic acid dimethylamide], the Ki was 1.8 nM. This Ki lies about 16-fold lower than the previous one.

`CN(C)C(=O)n1cc(C(=O)[C@@H]2CSC(c3cccnc3)N2)c2ccc(Oc3ccc(F)cc3)cc21` (stereo partly drawn) [6-(4-Fluoro-phenoxy)-3-((R)-2-pyridin-3-yl-thiazolidine-4-carbonyl)-indole-1-carboxylic acid dimethylamide] came in with a Ki of 2.2 nM.

Turning to `CN(C)C(=O)n1cc(C(=O)[C@@H]2CSC(c3cccnc3)N2)c2ccc(-c3ccc(F)cc3)cc21` (stereo partly drawn) [6-(4-Fluoro-phenyl)-3-((R)-2-pyridin-3-yl-thiazolidine-4-carbonyl)-indole-1-carboxylic acid dimethylamide], the affinity corresponds to a Ki of 9.2 nM.

As to `CN(C)C(=O)n1cc(C(=O)[C@@H]2CSC(c3cccnc3)N2)c2ccc(C(=O)c3ccccc3)cc21` (stereo partly drawn) [6-Benzoyl-3-((R)-2-pyridin-3-yl-thiazolidine-4-carbonyl)-indole-1-carboxylic acid dimethylamide], the affinity, expressed as Ki, was 1 nM. This Ki lies about 9.2-fold lower than the previous one.

Consider `CN(C)C(=O)n1cc(C(=O)[C@@H]2CSC(c3cccnc3)N2)c2ccc(OCc3ccccc3)cc21` (stereo partly drawn) [6-Benzyloxy-3-((R)-2-pyridin-3-yl-thiazolidine-4-carbonyl)-indole-1-carboxylic acid dimethylamide; compound with oxalic acid], for which the inhibition constant (Ki) is 1.4 nM.

Take `CC(C)(C)OC(=O)n1cc(C(=O)[C@@H]2CSC(c3cccnc3)N2)c2ccc(OCc3ccccc3)cc21` (stereo partly drawn) [6-Benzyloxy-3-((R)-2-pyridin-3-yl-thiazolidine-4-carbonyl)-indole-1-carboxylic acid tert-butyl ester]: the Ki was 1 nM. The Ki values of the last two molecules are within 1.5-fold of each other.

`CN(C)C(=O)n1cc(C(=O)[C@@H]2CSC(c3cccnc3)N2)c2ccc(Br)cc21` (stereo partly drawn) [6-Bromo-3-((R)-2-pyridin-3-yl-thiazolidine-4-carbonyl)-indole-1-carboxylic acid dimethylamide] returned an inhibition constant (Ki) of 0.6 nM. Compared with the last molecule, the Ki is about 1.7-fold lower.

`CN(C)C(=O)n1cc(C(=O)[C@@H]2CSC(c3cccnc3)N2)c2ccc(Cl)cc21` (stereo partly drawn) [6-Chloro-3-((R)-2-pyridin-3-yl-thiazolidine-4-carbonyl)-indole-1-carboxylic acid dimethylamide] gave a Ki of 1 nM.

Source of the values: BindingDB's records for doi:10.1021/jm00039a015 (Abbott Laboratories, 1994).
